Source: patent publication US10897891B2, “Compositions and methods for prolonged cell storage” (Board of Regents, The University of Texas System, priority 2015, dated 2021)

Tests used:
platelets [1] = test: Platelet aggregation and shape after cold storage (microscopy, Experiment A); type: cell-based, human; conditions: 2% final PEG-400, 5° C., 26 days, rotation 70 cycles per minute
Method: Photomicrographs were taken with a Nikon E400 microscope with an Insight 18.2 Color Camera and Spot 5.1 image capture software. No image adjustments were performed. Fluorescent microscopy was performed using a Leica DMIL photomicroscope and Leica LAS V3.8 image acquisition software. No post photographic image adjustments were made.
Platelets are known to change shape and show partial aggregation when chilled. The goal of the initial experiments was to see if this behavior changed when platelets were incubated in the presence of PEG-400. Two standard random donor platelet concentrates, type O, were mixed by connecting the bags, followed by gravity mixing 8 times. This mixture was equally divided by weight into the two original platelet bags and either 10 ml of PBS or 10 ml of PEG-400 in PBS was added to the control and test unit respectively. The final concentration of PEG-400 in the unit was 2%. These units were then gently rotated at 70 cycles per minute, with a 1 inch stroke length, at 5° C., over 26 days. At the end of this time aliquots were examined and photographed. • PBS Control 2% PEG-400 in PBS

platelets [2] = test: Hydrogen peroxide induced platelet aggregation (platelet 'aging', Experiment B); type: cell-based, human; conditions: 2% PEG-400 in PBS, 1 hr room temperature
Method: Platelet aggregation using epinephrine. Ten ml of 24 hr old platelet residual was derived from one platelet unit and split into two 5 ml aliquots in 50 ml tubes. One sample received 10% phosphate buffered saline (PBS) and one 10% PBS containing PEG400 such that the final PEG concentration was 2%. These samples were placed on a flat-bed rotator with a 1 inch stroke, at 70 cycles per min, at 5° C. for 7 days. 100 ul of these platelet suspensions were added to wells of a 96 well U bottom plate. Epinephrine 0.1 mg/ml (Pharmaceutical NDC 0409-4921-34-44-048-DK) was diluted with PBS and 100 ul was added to test wells to give a finial concentration of 10 mcg/ml. The plate was rotated overnight to allow aggregation. The extent of aggregation was read using an ELISA plate reader (Molecular Devises, Vmax) at 690 nm wavelength. Platelets, with and without PEG, were also aggregated by the addition of 10% H2O2. Hydrogen peroxide is not an agonist for the platelet receptor; however exposure to hydrogen peroxide mimics the platelet storage lesion though membrane ageing. In this study, the inventors tested 2 day old residual platelets form one donor unit by splitting the material in to a 24 well cluster plate. […] Table 3 presents additional cryoprotective agents scored for the effect on microscopic degranulation (20× high contrast lighting as above). […]

In the case of Polyethylene glycol [PEG-400], the “platelet aggregation and rod shapes vs PBS control” value (platelets [1]) is reported as “control was observed to be more aggregated and to have more rod shapes than the PEG test platelets” and the “platelet aggregation after 10% hydrogen peroxide vs PBS control” value (platelets [2]) is reported as “less aggregation of the platelets”.
